Data from patent EP4603105A1, “PHARMACEUTICAL COMPOSITION CONTAINING CYCLIC COMPOUND HAVING SELECTIVE KRAS INHIBITORY EFFECT AGAINST HRAS AND NRAS” (CHUGAI SEIYAKU KABUSHIKI KAISHA, priority 2022, dated 2024).
*1 amine or outer side, *2 acyl side, *3 side chain or, on linkers, in order; H or OH if unused. Where a SMILES comes first, the peptide text is derived from it. Bridges are numbered along the chain shown (N, C = ends). [ ]: non-standard residue; d: D form. The star is where a group is joined. hPhe(3-Cl-4-CF3) = N[C@@H](CCc1ccc(C(F)(F)F)c(Cl)c1)C(=O)O; NPrPhe(4-CF3) = CCCN[C@@H](Cc1ccc(C(F)(F)F)cc1)C(=O)O; X49 = Cc1ccc(C[C@@H](C(=O)[*:2])N(CC2CC2)[*:1])cc1; 3Oxa8azabicyclo(3.2.1)octane = C1CC2COCC1N2*; Morpholine(3S-CO) = O=C(O)[C@@H]1COCCN1; NMeGly(cPent) = CN[C@H](C(=O)O)C1CCCC1; Pro(4,4-F2) = O=C(O)[C@@H]1CC(F)(F)CN1; Hyp = O=C(O)[C@@H]1C[C@@H](O)CN1; NMeD = CN[C@@H](CC(=O)O)C(=O)O; NMeL = CN[C@@H](CC(C)C)C(=O)O; Morpholide = C1CN(*)CCO1; NMeA = CN[C@@H](C)C(=O)O; Ac5c = NC1(C(=O)O)CCCC1; Aze = O=C(O)[C@@H]1CCN1; Ac4c = NC1(C(=O)O)CCC1; Sar = CNCC(=O)O

Legend:
[1] = tested on: human lung cancer strain NCI-H441; assay type: cell-based
Summary of the method: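 Step one: dispense the test compound in serial DMSO dilutions. Step three: add the reagent and measure […].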

HRAS wild-type protein = HRAS wild-type protein (Homo sapiens, UniProt P01112); experiment: Binding to HRAS by surface plasmon resonance (SPR), KD and KD ratio to KRAS
Summary of the method: (§1)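 Captured GDP-RAS (~100–300 RU) was exposed to increasing compound concentrations, 75 s per step, in running buffer with 10 µM GDP, 10 mM MgCl2 and 4% DMSO at pH 7.4.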

[2] = biological target: GDP-bound NRAS wild-type protein (Homo sapiens, UniProt P01111); experiment: Binding to NRAS by surface plasmon resonance (SPR), KD and KD ratio to KRAS
Summary of the method: as §1

[3] = ratio of KD for HRAS wild-type protein to KD for KRAS
[4] = ratio of KD for GDP-bound NRAS wild-type protein to KD for KRAS
[5] = ratio of the KD value with respect to HRAS wild-type protein to the KD value with respect to KRAS
[6] = ratio of the KD value with respect to GDP-bound NRAS wild-type protein to the KD value with respect to KRAS

Chain of HRAS wild-type protein (P01112 whole entry): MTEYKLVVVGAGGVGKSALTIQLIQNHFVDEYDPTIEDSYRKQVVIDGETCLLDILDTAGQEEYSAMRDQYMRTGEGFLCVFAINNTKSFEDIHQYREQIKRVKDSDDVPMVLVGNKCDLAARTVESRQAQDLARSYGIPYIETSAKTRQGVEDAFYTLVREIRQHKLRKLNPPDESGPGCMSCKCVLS
Chain of GDP-bound NRAS wild-type protein (P01111 whole entry): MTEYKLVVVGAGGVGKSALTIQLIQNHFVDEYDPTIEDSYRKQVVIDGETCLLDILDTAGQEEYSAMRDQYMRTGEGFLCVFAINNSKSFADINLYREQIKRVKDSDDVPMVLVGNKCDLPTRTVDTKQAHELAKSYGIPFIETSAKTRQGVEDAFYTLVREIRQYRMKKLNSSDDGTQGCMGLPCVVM

| SMILES | IC50 [1] [nM] | HRAS /KRAS (HRAS wild-type protein; ratio of KD value for HRAS wild-type protein to KD value for KRAS (SPR)) | NRAS /KRAS ([2]; ratio of KD value for GDP-bound NRAS wild-type protein to KD value for KRAS (SPR)) | HRAS /KRAS (HRAS wild-type protein; [3]) | NRAS /KRAS [2, 4] | HRAS /KRAS (HRAS wild-type protein; [5]) | NRAS /KRAS [2, 6] |
| --- | --- | --- | --- | --- | --- | --- | --- |
| CC[C@H](C)[C@@H]1NC(=O)[C@H](CC)N(C)C(=O)C[C@@H](C(=O)N(C)C)N(C)C(=O)[C@H](C2CCCC2)N(C)C(=O)C2(CC(C)(C)C2)NC(=O)[C@@H]2C[C@@H](C)CN2C(=O)[C@H](CCc2ccc(C(F)(F)F)c(OC)c2)NC(=O)CN(C)C(=O)[C@H](Cc2ccc(C)cc2)N2CC/C=C\C[C@@H](C2=O)N(C)C(=O)CN(C)C1=O [PP1838] | 20 | A (a compound having 10 or more and less than 20 is denoted as A) | A (a compound having 10 or more and less than 20 is denoted as A) | – | – | – | – |
| CC[C@H](C)[C@@H]1NC(=O)[C@H](CC(C)C)N(C)C(=O)C[C@@H](C(=O)N2CCOCC2)N(C)C(=O)[C@H](C2CCCC2)N(C)C(=O)C2(CCCC2)NC(=O)[C@@H]2CCCN2C(=O)[C@H](CCc2ccc(C(F)(F)F)c(Cl)c2)NC(=O)CN(C)C(=O)[C@H](Cc2ccc(C)cc2)N(CC2CC2)C(=O)CN(C)C(=O)CN(C)C1=O [PP0064] ([NMeL]I[Sar][Sar][X49][Sar][hPhe(3-Cl-4-CF3)]P[Ac5c][NMeGly(cPent)][NMeD]-Morpholide; lactam N-11) | 9.9 | – | – | C (A compound having a KD ratio of 0.1 or more and less than 3 is denoted as C) | C (A compound having a KD ratio of 0.1 or more and less than 3 is denoted as C) | – | – |
| CCCN1C(=O)[C@@H]2CCN2C(=O)[C@H](C)N(C)C(=O)[C@H]([C@@H](C)CC)NC(=O)[C@H](CC(C)C)N(C)C(=O)C[C@@H](C(=O)N(C)C)N(C)C(=O)[C@H](C2CCCC2)N(C)C(=O)C2(CCCC2)NC(=O)[C@@H]2C[C@@H](OCC)CN2C(=O)[C@H](CCc2ccc(C(F)(F)F)c(Cl)c2)NC(=O)CN(C)C(=O)[C@@H]1Cc1ccc(C(F)(F)F)cc1 [PP0438] ([NMeL]I[NMeA][Aze][NPrPhe(4-CF3)][Sar][hPhe(3-Cl-4-CF3)][Hyp](Et)[Ac5c][NMeGly(cPent)][NMeD]-NMe2; lactam N-11) | 1 | – | – | – | – | C (A compound having a KD ratio of 0.1 or more and less than 3 is denoted as C) | C (A compound having a KD ratio of 0.1 or more and less than 3 is denoted as C) |
| CCCN1C(=O)CN(C)C(=O)CN(C)C(=O)[C@H]([C@@H](C)CC)NC(=O)[C@H](CC(C)C)N(C)C(=O)C[C@@H](C(=O)N2C3CCC2COC3)N(C)C(=O)[C@H](C2CCCC2)N(C)C(=O)C2(CCCC2)NC(=O)[C@@H]2CCCN2C(=O)[C@H](CCc2ccc(C(F)(F)F)c(Cl)c2)NC(=O)CN(C)C(=O)[C@@H]1Cc1ccc(C(F)(F)F)cc1 [PP0173] ([NMeL]I[Sar][Sar][NPrPhe(4-CF3)][Sar][hPhe(3-Cl-4-CF3)]P[Ac5c][NMeGly(cPent)][NMeD]-{3Oxa8azabicyclo(3.2.1)octane}; lactam N-11) | 11.6 | – | – | C (A compound having a KD ratio of 0.1 or more and less than 3 is denoted as C) | B (a compound having 3 or more and less than 10 is denoted as B) | – | – |
| CCCN1C(=O)CN(C)C(=O)CN(C)C(=O)[C@H]([C@@H](C)CC)NC(=O)[C@H](CC(C)C)N(C)C(=O)C[C@@H](C(=O)N2CCOCC2)NC(=O)[C@H](C2CCCC2)N(C)C(=O)C2(CCCC2)NC(=O)[C@@H]2CC(F)(F)CN2C(=O)[C@H](CCc2ccc(C(F)(F)F)c(Cl)c2)NC(=O)CN(C)C(=O)[C@@H]1Cc1ccc(C(F)(F)F)cc1 [PP0321] ([NMeL]I[Sar][Sar][NPrPhe(4-CF3)][Sar][hPhe(3-Cl-4-CF3)][Pro(4,4-F2)][Ac5c][NMeGly(cPent)]D-Morpholide; lactam N-11) | 55.7 | – | – | B (a compound having 3 or more and less than 10 is denoted as B) | B (a compound having 3 or more and less than 10 is denoted as B) | – | – |
| CCC[C@H]1C(=O)N[C@@H]([C@@H](C)CC)C(=O)N(C)CC(=O)N(C)[C@H]2C/C=C\CCN(C2=O)[C@@H](Cc2ccc(C)cc2)C(=O)N(C)CC(=O)N[C@@H](CCc2ccc(Cl)c(Cl)c2)C(=O)N2C[C@H](OCC)C[C@H]2C(=O)NC2(CC(C)(C)C2)C(=O)N(C)[C@@H](C(CC)CC)C(=O)N(C)[C@H](C(=O)N(C)C)CC(=O)N1C [PP2184] | 29.2 | – | – | – | – | A (a compound having 10 or more and less than 20 is denoted as A) | AA (a compound having 20 or more is denoted as AA) |
| CCCN1C(=O)[C@@H]2CCN2C(=O)[C@H](C)N(C)C(=O)[C@H]([C@@H](C)CC)NC(=O)[C@H](CC(C)C)N(C)C(=O)C[C@@H](C(=O)N2CCOCC2)N(C)C(=O)[C@H](C2CCCC2)N(C)C(=O)C2(CCCC2)NC(=O)[C@@H]2COCCN2C(=O)[C@H](CCc2ccc(C(F)(F)F)c(Cl)c2)NC(=O)CN(C)C(=O)[C@@H]1Cc1ccc(C(F)(F)F)cc1 [PP0286] ([NMeL]I[NMeA][Aze][NPrPhe(4-CF3)][Sar][hPhe(3-Cl-4-CF3)][Morpholine(3S-CO)][Ac5c][NMeGly(cPent)][NMeD]-Morpholide; lactam N-11) | 35 | – | – | B (a compound having 3 or more and less than 10 is denoted as B) | C (A compound having a KD ratio of 0.1 or more and less than 3 is denoted as C) | – | – |
| CCCOC[C@H]1C(=O)N[C@@H]([C@@H](C)CC)C(=O)N(C2CC2)CC(=O)N(C)[C@H]2C/C=C\CCN(C2=O)[C@@H](Cc2ccc(C)cc2)C(=O)N(C)CC(=O)N[C@@H](CCc2ccc(C(F)(F)F)c(OC)c2)C(=O)N2C[C@H](OCC)C[C@H]2C(=O)N(C)C2(CCC2)C(=O)N(C)[C@@H](C(CC)CC)C(=O)N(C)[C@H](C(=O)N(C)C)CC(=O)N1C [PP2327] | 9.9 | – | – | – | – | A (a compound having 10 or more and less than 20 is denoted as A) | A (a compound having 10 or more and less than 20 is denoted as A) |
| CCCN1C(=O)CN(C)C(=O)CN(C)C(=O)[C@H]([C@@H](C)CC)NC(=O)[C@H](CC(C)C)N(C)C(=O)C[C@@H](C(=O)N(C)C)N(C)C(=O)[C@H](C2CCCC2)N(C)C(=O)C2(CCC2)NC(=O)[C@@H]2CC(F)(F)CN2C(=O)[C@H](CCc2ccc(C(F)(F)F)c(Cl)c2)NC(=O)CN(C)C(=O)[C@@H]1Cc1ccc(C(F)(F)F)cc1 [PP0414] ([NMeL]I[Sar][Sar][NPrPhe(4-CF3)][Sar][hPhe(3-Cl-4-CF3)][Pro(4,4-F2)][Ac4c][NMeGly(cPent)][NMeD]-NMe2; lactam N-11) | 1.9 | – | – | – | – | C (A compound having a KD ratio of 0.1 or more and less than 3 is denoted as C) | B (a compound having 3 or more and less than 10 is denoted as B) |
| CCC[C@H]1C(=O)N[C@@H]([C@@H](C)CC)C(=O)N(C)CC(=O)N(C)[C@H]2C/C=C\CCN(C2=O)[C@@H](Cc2ccc(C(F)(F)F)cc2)C(=O)N(C)CC(=O)N[C@@H](CCc2ccc(Cl)c(Cl)c2)C(=O)N2CCOC[C@H]2C(=O)NC2(CC(C)(C)C2)C(=O)N(C)[C@@H](C(CC)CC)C(=O)N(C)[C@H](C(=O)N(C)C)CC(=O)N1C [PP2920] | 118 | – | – | A (a compound having 10 or more and less than 20 is denoted as A) | AA (a compound having 20 or more is denoted as AA) | – | – |
| CCCN1C(=O)CN(C)C(=O)CN(C)C(=O)[C@H]([C@@H](C)CC)NC(=O)[C@H](CC(C)C)N(C)C(=O)C[C@@H](C(=O)N(C)C)N(C)C(=O)[C@H](C2CCCC2)N(C)C(=O)C2(CCCC2)NC(=O)[C@@H]2CCCN2C(=O)[C@H](CCc2ccc(C(F)(F)F)c(Cl)c2)NC(=O)CN(C)C(=O)[C@@H]1Cc1ccc(C(F)(F)F)cc1 [PP0169] ([NMeL]I[Sar][Sar][NPrPhe(4-CF3)][Sar][hPhe(3-Cl-4-CF3)]P[Ac5c][NMeGly(cPent)][NMeD]-NMe2; lactam N-11) | 2.3 | – | – | B (a compound having 3 or more and less than 10 is denoted as B) | B (a compound having 3 or more and less than 10 is denoted as B) | – | – |
| CCCN1C(=O)CN(C)C(=O)CN(C)C(=O)[C@H]([C@@H](C)CC)NC(=O)[C@H](CC(C)C)N(C)C(=O)C[C@@H](C(=O)N(C)C)N(C)C(=O)[C@H](C2CCCC2)N(C)C(=O)C2(CCC2)NC(=O)[C@@H]2C[C@@H](OCC)CN2C(=O)[C@H](CCc2ccc(C(F)(F)F)c(Cl)c2)NC(=O)CN(C)C(=O)[C@@H]1Cc1ccc(C(F)(F)F)cc1 [PP0416] ([NMeL]I[Sar][Sar][NPrPhe(4-CF3)][Sar][hPhe(3-Cl-4-CF3)][Hyp](Et)[Ac4c][NMeGly(cPent)][NMeD]-NMe2; lactam N-11) | 1.1 | – | – | – | – | C (A compound having a KD ratio of 0.1 or more and less than 3 is denoted as C) | B (a compound having 3 or more and less than 10 is denoted as B) |
| CCO[C@@H]1C[C@H]2C(=O)NC3(CCC3)C(=O)N(C)[C@@H](C3CCCC3)C(=O)N(C)[C@H](C(=O)N(C)CC)CC(=O)N(C)[C@H]3CCCCCc4ccc(cc4)C[C@@H](C(=O)N(C)CC(=O)N[C@@H](CCc4ccc(C(F)(F)F)c(OC)c4)C(=O)N2C1)N1CC/C=C\C[C@@H](C1=O)N(C)C(=O)CN(C)C(=O)[C@H]([C@@H](C)CC)NC3=O [PP2118] | 8.1 | – | – | – | – | B (a compound having 3 or more and less than 10 is denoted as B) | A (a compound having 10 or more and less than 20 is denoted as A) |
